These results are taken from ChEMBL document CHEMBL1201862, “PubChem BioAssay data set” (2004).

Molecules are shown by their SMILES.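 The compound was tested at five concentrations on cells cultured in 96-well plates, with a 48-hour exposure period. At the GI50, growth is halved.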 Activity calls are given as the source filed them. Rule as the data show it: active = GI50 up to about 1.1 µM and inactive = higher.

Some test systems named below: UO-31; SNB-19; CCRF-CEM; SF-539; SF-268; HOP-62; MDA-N; T47D; DU-145; K562; HCC 2998; COLO 205; UACC-257; UACC-62; PC-3; HOP-92; M14; U-251; SF-295; HL-60.
What all share (experiment): growth of human tumour cells (NCI), 48 h

Turning to `Nc1nc(Cl)cc(NC23CC4CC(CC(C4)C2)C3)n1`, the GI50 with UO-31 was > 100 µM (inactive); with SNB-19, > 100 µM (inactive); in the experiment with CCRF-CEM, > 100 µM (inactive); in the experiment with SF-539 it was 47.9 µM (inactive); with SF-268, 47.1 µM (inactive); with HOP-62 it was > 100 µM (inactive). Further, the GI50 is > 100 µM (inactive) in the experiment on MDA-N; > 100 µM (inactive) with T47D; > 100 µM (inactive) with DU-145; > 100 µM (inactive) in the experiment with K562; > 100 µM (inactive) with HCC 2998; 81.8 µM (inactive) with COLO 205. Also, the GI50 is > 100 µM (inactive) with UACC-257; > 100 µM (inactive) with UACC-62; 29.2 µM (inactive) in the experiment with PC-3; > 100 µM (inactive) in the experiment with HOP-92; > 100 µM (inactive) in the experiment on M14; 32 µM (inactive) in the experiment on U-251. Besides, the GI50 in the experiment with SF-295 is 85.5 µM (inactive).
As to `Cc1nn(-c2cc(Cl)ccc2[N+](=O)[O-])c(C)c1Cl`, the GI50 was 20.8 µM (inactive) with UO-31; > 100 µM (inactive) in the experiment on SNB-19; 37.5 µM (inactive) with CCRF-CEM; > 100 µM (inactive) with SF-539; > 100 µM (inactive) in the experiment with SF-268; > 100 µM (inactive) with HOP-62. The GI50 with MDA-N was > 100 µM (inactive); in the experiment with T47D, 38.2 µM (inactive); with DU-145, > 100 µM (inactive); in the experiment on K562, 20.3 µM (inactive); in the experiment on HCC 2998, 38.6 µM (inactive); in the experiment on COLO 205 it was > 100 µM (inactive). The GI50 with UACC-257 was > 100 µM (inactive); in the experiment on UACC-62, > 100 µM (inactive); in the experiment with PC-3, 51.2 µM (inactive); in the experiment with M14, > 100 µM (inactive); with U-251, > 100 µM (inactive); in the experiment with SF-295 it was > 100 µM (inactive). For the same compound, the GI50 in the experiment on HL-60 was 91.8 µM (inactive).
As for `Clc1cc2ncn(C3CCCCO3)c2cc1Cl` (configuration not stated), the GI50 was 16.1 µM (inactive) with UO-31; > 100 µM (inactive) in the experiment on SNB-19; 56.2 µM (inactive) in the experiment with CCRF-CEM; 96.4 µM (inactive) in the experiment with SF-539; 34.6 µM (inactive) in the experiment on SF-268; 69.8 µM (inactive) in the experiment with HOP-62. The GI50 was 65.8 µM (inactive) in the experiment on MDA-N; 44.6 µM (inactive) with T47D; 81.8 µM (inactive) in the experiment on DU-145; 46.2 µM (inactive) with K562; 64.6 µM (inactive) in the experiment with HCC 2998; 77.3 µM (inactive) in the experiment on COLO 205. Further, the GI50 is 53.5 µM (inactive) in the experiment with UACC-62; 34.6 µM (inactive) in the experiment on PC-3; 71.8 µM (inactive) in the experiment on M14; 39.5 µM (inactive) in the experiment on U-251; 70.5 µM (inactive) in the experiment with SF-295; 30.1 µM (inactive) with HL-60.
Take `COc1cc(OC)nc(Nc2c(C#N)c3nc4ccccc4n3c3ccccc23)n1`: the GI50 was 53.1 µM (inactive) in the experiment with UO-31; 25.1 µM (inactive) in the experiment on SNB-19; > 100 µM (inactive) in the experiment with CCRF-CEM; 17.6 µM (inactive) with SF-539; 29.9 µM (inactive) in the experiment with SF-268; 16.6 µM (inactive) in the experiment on HOP-62. In addition, the GI50 in the experiment with MDA-N, with T47D, in the experiment on DU-145, with K562, in the experiment on HCC 2998 and with COLO 205 was > 100 µM (inactive) each time. In addition, the GI50 was 52.7 µM (inactive) in the experiment with UACC-257; 37.1 µM (inactive) with UACC-62; 40.3 µM (inactive) in the experiment on PC-3; > 100 µM (inactive) with M14; 31.3 µM (inactive) in the experiment on U-251; 21.6 µM (inactive) in the experiment on SF-295. In addition, the GI50 in the experiment on HL-60 was > 100 µM (inactive).
Regarding `O=C(NNC(=S)NC1CCCCC1)C12CC3CC(CC(C3)C1)C2`, the GI50 with UO-31, in the experiment with SNB-19, in the experiment with CCRF-CEM, in the experiment on SF-539, in the experiment with SF-268 and with HOP-62 was > 100 µM (inactive) in each case. The GI50 with MDA-N, in the experiment with T47D, with DU-145, in the experiment with K562, in the experiment on HCC 2998 and in the experiment with COLO 205 was > 100 µM (inactive) in each case. The GI50 in the experiment with UACC-257, in the experiment with UACC-62, in the experiment on PC-3, in the experiment on M14, in the experiment on U-251 and in the experiment on SF-295 was > 100 µM (inactive) throughout. Moreover, the GI50 in the experiment with HL-60 is > 100 µM (inactive).
As for `CC(C)/C(Cl)=N\OC(=O)Nc1ccc(F)cc1`, the GI50 with UO-31 is 5.85 µM (inactive); with SNB-19, 19.2 µM (inactive); in the experiment with CCRF-CEM it was 0.916 µM (active); in the experiment with SF-539, 16.9 µM (inactive); in the experiment on SF-268 it was 24.6 µM (inactive); with HOP-62 it was 19.2 µM (inactive). Besides, the GI50 in the experiment on MDA-N was 8.26 µM (inactive); in the experiment on T47D, 6.53 µM (inactive); in the experiment with DU-145 it was 16.3 µM (inactive); in the experiment on K562, 1.5 µM (inactive); in the experiment on HCC 2998, 15.7 µM (inactive); in the experiment with COLO 205 it was 2.63 µM (inactive). The GI50 was 14.3 µM (inactive) in the experiment on UACC-257; 16 µM (inactive) with UACC-62; 17.4 µM (inactive) in the experiment with PC-3; 4.06 µM (inactive) in the experiment with M14; 15.6 µM (inactive) in the experiment with U-251; 14.4 µM (inactive) in the experiment on SF-295. The GI50 in the experiment with HL-60 was 1.55 µM (inactive).
Turning to `S=C(NN=C1NCCCCN1)Nc1ccccc1`, the GI50 in the experiment on UO-31 was 34 µM (inactive); with SNB-19, > 100 µM (inactive); in the experiment on CCRF-CEM, 19.8 µM (inactive); with SF-539, > 100 µM (inactive); in the experiment with SF-268 it was 87.3 µM (inactive); in the experiment with HOP-62, 68.9 µM (inactive). The GI50 with MDA-N is 98.4 µM (inactive); in the experiment on T47D, > 100 µM (inactive); in the experiment with DU-145, > 100 µM (inactive); in the experiment with K562 it was 31.6 µM (inactive); with HCC 2998 it was > 100 µM (inactive); in the experiment with COLO 205, 6.68 µM (inactive). Moreover, the GI50 with UACC-257 was 36 µM (inactive); with UACC-62 it was > 100 µM (inactive); in the experiment on PC-3 it was 45.7 µM (inactive); in the experiment with M14 it was 31.7 µM (inactive); in the experiment with U-251 it was 36.3 µM (inactive); in the experiment with SF-295 it was 31.5 µM (inactive). Further, the GI50 with HL-60 was 14.6 µM (inactive).
`CN(CCCn1ccnc1[N+](=O)[O-])CCCn1ccnc1[N+](=O)[O-]`: the GI50 in the experiment on UO-31 was > 100 µM (inactive); with CCRF-CEM, 8.41 µM (inactive); in the experiment on SF-539, > 100 µM (inactive); in the experiment on SF-268, > 100 µM (inactive); in the experiment on HOP-62 it was > 100 µM (inactive); in the experiment with MDA-N, > 100 µM (inactive). The GI50 with T47D, in the experiment with DU-145, in the experiment with K562, with COLO 205, with UACC-257 and in the experiment with UACC-62 was > 100 µM (inactive) throughout. Besides, the GI50 in the experiment with PC-3, with M14, in the experiment with U-251, in the experiment on SF-295 and with HL-60 was > 100 µM (inactive) each time.
`CCN(CC)c1ccc2nc3ccc(/N=N/c4c(O)ccc5ccccc45)cc3[n+](-c3ccccc3)c2c1`: the GI50 with UO-31, in the experiment on SNB-19, with CCRF-CEM, with SF-268, in the experiment with HOP-62 and with MDA-N was > 100 µM (inactive) in each case. Also, the GI50 in the experiment with T47D, in the experiment with DU-145, with K562, with COLO 205, in the experiment on UACC-257 and in the experiment on UACC-62 was > 100 µM (inactive) throughout. In addition, the GI50 in the experiment with PC-3 is > 100 µM (inactive); in the experiment with HOP-92, > 100 µM (inactive); with M14 it was > 100 µM (inactive); in the experiment with U-251, > 100 µM (inactive); in the experiment with SF-295 it was > 100 µM (inactive); in the experiment on HL-60, 23.9 µM (inactive).
Consider `COc1ccc(-n2c(C)nc3ccc(/N=C/c4ccccc4)cc3c2=O)cc1`, for which the GI50 in the experiment with UO-31, in the experiment with SNB-19, in the experiment on SF-268, in the experiment with HOP-62, in the experiment on MDA-N and with T47D was > 100 µM (inactive) in each case. Further, the GI50 in the experiment with DU-145, in the experiment on K562, with HCC 2998, in the experiment on COLO 205, with UACC-257 and in the experiment on UACC-62 was > 100 µM (inactive) each time. The GI50 with PC-3, with U-251, with SF-295 and in the experiment with HL-60 was > 100 µM (inactive) throughout.
As for `C[N+]1(CCN[N+]2(C)CCCCC2)CCc2ccccc2C1` (configuration not stated), the GI50 is > 100 µM (inactive) in the experiment with UO-31; > 100 µM (inactive) in the experiment on SNB-19; > 100 µM (inactive) with CCRF-CEM; 58.3 µM (inactive) in the experiment on SF-539; > 100 µM (inactive) in the experiment with SF-268; > 100 µM (inactive) with HOP-62. Besides, the GI50 in the experiment on MDA-N, with T47D, with DU-145, in the experiment on K562, in the experiment on HCC 2998 and in the experiment with COLO 205 was > 100 µM (inactive) in each case. For the same compound, the GI50 with UACC-257, in the experiment with UACC-62, in the experiment with PC-3, with HOP-92, in the experiment with M14 and with U-251 was > 100 µM (inactive) in each case. Also, the GI50 with SF-295 was > 100 µM (inactive).
